Test [1] addresses T1, Renin (Homo sapiens) (UniProt P00797).
T1 sequence (whole entry): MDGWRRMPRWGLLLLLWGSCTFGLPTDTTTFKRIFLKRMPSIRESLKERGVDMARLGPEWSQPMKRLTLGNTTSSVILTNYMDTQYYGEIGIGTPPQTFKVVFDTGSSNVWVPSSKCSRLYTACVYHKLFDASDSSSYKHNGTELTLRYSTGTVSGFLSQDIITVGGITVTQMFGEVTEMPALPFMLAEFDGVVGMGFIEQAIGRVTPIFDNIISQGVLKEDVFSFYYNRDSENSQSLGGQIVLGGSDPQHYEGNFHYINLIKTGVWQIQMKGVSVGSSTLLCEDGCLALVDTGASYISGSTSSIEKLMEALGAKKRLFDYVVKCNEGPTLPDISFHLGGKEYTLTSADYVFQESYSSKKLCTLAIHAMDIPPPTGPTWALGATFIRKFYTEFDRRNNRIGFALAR
Briefly: Ratio IC50 for aliskiren to compound for renin.

Test [2] concerns the target T2, Renin (Homo sapiens, UniProt P00797).
T2 sequence (P00797 whole entry): T1 sequence (whole entry)
Briefly: Inhibition of renin measured every 30 secs for 15 mins by fluorimetric analysis.

Structures are written as SMILES.

`COCCCOc1cc(C[C@@H](C[C@H](N)[C@@H](O)C[C@H](C(=O)NCC(C)(C)Cn2ccnn2)C(C)C)C(C)C)ccc1OC`: the Ratio IC50 in test [1] is 10. Besides, in test [2], the midpoint of inhibition, the IC50, lay at 0.2 nM. In turn, `COCCCOc1cc(C[C@@H](C[C@H](N)[C@@H](O)C[C@H](C(=O)NCC(C)(C)CNC(=O)c2ccc(OC)cc2)C(C)C)C(C)C)ccc1OC` gave an IC50 in test [2] of 3.84 nM. In other words, the single-digit nanomolar range. Same read-out and setting: in the case of `COCCCOc1cc(C[C@@H](C[C@H](N)[C@@H](O)C[C@H](C(=O)NCC(C)(C)CN)C(C)C)C(C)C)ccc1OC` it was 2.88 nM; in that of `CCCC(=O)NCC(C)(C)CNC(=O)[C@@H](C[C@H](O)[C@@H](N)C[C@H](Cc1ccc(OC)c(OCCCOC)c1)C(C)C)C(C)C`, 1.12 nM; in that of `CCCCCC(=O)NCC(C)(C)CNC(=O)[C@@H](C[C@H](O)[C@@H](N)C[C@H](Cc1ccc(OC)c(OCCCOC)c1)C(C)C)C(C)C`, 0.83 nM.

`COCCCOc1cc(C[C@@H](C[C@H](N)[C@@H](O)C[C@H](C(=O)NCC(C)(C)CNS(C)(=O)=O)C(C)C)C(C)C)ccc1OC` returned a 50% inhibitory concentration (IC50) in test [2] of 4.23 nM. Same read-out and setting: next, `CCC(=O)NCC(C)(C)CNC(=O)[C@@H](C[C@H](O)[C@@H](N)C[C@H](Cc1ccc(OC)c(OCCCOC)c1)C(C)C)C(C)C`: 1.08 nM. Same read-out and setting: next, `COCCCOc1cc(C[C@@H](C[C@H](N)[C@@H](O)C[C@H](C(=O)NCC(C)(C)CNC(=O)CC(C)C)C(C)C)C(C)C)ccc1OC`: 1.48 nM.

`COCCCOc1cc(C[C@@H](C[C@H](N)[C@@H](O)C[C@H](C(=O)NCC(C)(C)CNC(=O)C(C)(C)C)C(C)C)C(C)C)ccc1OC`: in test [2], half-maximal inhibition (IC50) required 4.13 nM.

Regarding `CCS(=O)(=O)NCC(C)(C)CNC(=O)[C@@H](C[C@H](O)[C@@H](N)C[C@H](Cc1ccc(OC)c(OCCCOC)c1)C(C)C)C(C)C`, the half-maximal inhibitory concentration (IC50) in test [2] came out at 0.91 nM. The same measure, in the same setting: next, `COCCCOc1cc(C[C@@H](C[C@H](N)[C@@H](O)C[C@H](C(=O)NCC(C)(C)CNS(N)(=O)=O)C(C)C)C(C)C)ccc1OC`: 0.79 nM; `COCCCOc1cc(C[C@@H](C[C@H](N)[C@@H](O)C[C@H](C(=O)NCC(C)(C)CNC(=O)c2ccccc2)C(C)C)C(C)C)ccc1OC`: 1.02 nM; `COCCCOc1cc(C[C@@H](C[C@H](N)[C@@H](O)C[C@H](C(=O)NCC(C)(C)CNS(=O)(=O)c2ccc(C)cc2)C(C)C)C(C)C)ccc1OC`: 1.15 nM. The same measure, in the same setting: next, `COCCCOc1cc(C[C@@H](C[C@H](N)[C@@H](O)C[C@H](C(=O)NCC(C)(C)CNC(=O)Cc2ccccc2)C(C)C)C(C)C)ccc1OC`: 1.64 nM; `CCOC(=O)NCC(C)(C)CNC(=O)[C@@H](C[C@H](O)[C@@H](N)C[C@H](Cc1ccc(OC)c(OCCCOC)c1)C(C)C)C(C)C`: 0.81 nM. The same measure, in the same setting: next, `COCCCOc1cc(C[C@@H](C[C@H](N)[C@@H](O)C[C@H](C(=O)NCC(C)(C)CNC(=O)C(F)(F)F)C(C)C)C(C)C)ccc1OC`: 4.85 nM. In the case of `COCCCOc1cc(C[C@@H](C[C@H](N)[C@@H](O)C[C@H](C(=O)NCC(C)(C)CNC(=O)N(C)C)C(C)C)C(C)C)ccc1OC`, the IC50 in test [2] was 0.36 nM.

The values above are taken from ChEMBL document CHEMBL1806463, “Synthesis, biological evaluation and docking studies of octane-carboxamide based renin inhibitors with extended segments toward S3' site of renin” (Bioorg Med Chem, 2011).
